system: Human leukemia cell strain HL-60; assay: HL-60 differentiation induction (NBT reduction method); assay type: cell-based; details: Am80 present at 3.3×10^−10 M; half of maximum differentiation inducing rate; read-out: Retinoid synergistic activity SEC50
Protocol: Human leukemia cell strain HL-60 differentiates into granulocytes (neutrophils) to come to have an ability to express active oxygen. […] A method for measuring differentiation inducibility of cells into granulocytes by using this principle is referred to as NBT reduction method. So, the differentiation inducibility of the synthesized compound was measured by NBT reduction method. […] Each compound was dissolved in dimethylsulfoxide (DMSO) into 20 mM to prepare a stock solution. NBT was prepared into 0.2 w/v % by using PBS (−) 2 hours before use and incubated at 37° C. TPA was dissolved in ethanol (EtOH) into 2 mg/mL to prepare a stock solution. This TPA solution was prepared into 20 μg/mL by using PBS (−) at the time of use. […] The action of RXR agonist is enhanced by the combined use of that and RAR agonist. […] After four days cultivation, cells were collected by centrifugation (4° C., 1500 rpm, 5 minutes). After these cells were seeded onto 1 mL of a fresh growth medium, then 1 mL of 0.2 w/v % NBT solution and 20 μl of 20 μg/ml of TPA solution were added, and incubation was carried out in the incubator containing 5% CO2 at 37° C. for 30 minutes. Then, stained cell number and total cell number were counted on a cell counter. Meanwhile, the measurement was conducted three times by counting 200 cells or more at a time and a differentiation inducing rate was calculated from a mean value obtained by averaging them. […] Meanwhile, “inert” means that differentiation inducibility can not be observed even at 10 μM. Likewise, b) BA (bioactivity) (%) refers to the maximum differentiation inducing rate relative to the total cell number in this test.

| EC50 [nM] | SMILES |
| --- | --- |
| 900 | CC(C)Oc1cc(N(c2ccc(C(=O)O)cn2)S(C)(=O)=O)ccc1C(C)C [Compound 1b] |
| 4300 | CCCOc1cc(Nc2ccc(C(=O)O)cn2)ccc1C(C)C [Compound 2c] |
| 23 | CCN(c1ccc(OC(C)C)c(C(C)C)c1)c1ccc(C(=O)O)cn1 [Compound 4a] |
| 12 | CCN(c1ccc(C(C)C)c(OC(C)C)c1)c1ncc(C(=O)O)cn1 [Compound 6a] |

same assay, conditions: Am80 present at 3.3×10^−10 M; maximum differentiation inducing rate relative to total cell number

| SMILES | Retinoid synergistic activity BA(%) |
| --- | --- |
| CC(C)Oc1cc(N(c2ccc(C(=O)O)cn2)S(C)(=O)=O)ccc1C(C)C [Compound 1b] | 63 |
| CCCOc1cc(Nc2ccc(C(=O)O)cn2)ccc1C(C)C [Compound 2c] | 60 |
| CCN(c1ccc(OC(C)C)c(C(C)C)c1)c1ccc(C(=O)O)cn1 [Compound 4a] | 64 |
| CCN(c1ccc(C(C)C)c(OC(C)C)c1)c1ncc(C(=O)O)cn1 [Compound 6a] | 87 |

same assay, conditions: Homo sapiens, HL-60, 96 h; test compound alone; concentration giving half of maximum differentiation inducing rate; four days culture; read-out: Retinoid activity EC50

| EC50 [nM] | SMILES |
| --- | --- |
| > 10000 | CCN(c1ccc(C(C)C)c(OC(C)C)c1)c1ncc(C(=O)O)cn1 [Compound 6a] |

same assay, conditions: test compound alone; concentration giving half of maximum differentiation inducing rate; four days culture; read-out: Retinoid activity EC50

| EC50 [nM] | SMILES |
| --- | --- |
| > 10000 | CC(C)Oc1cc(N(c2ccc(C(=O)O)cn2)S(C)(=O)=O)ccc1C(C)C [Compound 1b] |
| > 10000 | CCCOc1cc(Nc2ccc(C(=O)O)cn2)ccc1C(C)C [Compound 2c] |
| > 10000 | CCN(c1ccc(OC(C)C)c(C(C)C)c1)c1ccc(C(=O)O)cn1 [Compound 4a] |

same assay, conditions: test compound alone; maximum differentiation inducing rate relative to total cell number

| SMILES | Retinoid activity BA(%) |
| --- | --- |
| CC(C)Oc1cc(N(c2ccc(C(=O)O)cn2)S(C)(=O)=O)ccc1C(C)C [Compound 1b] | 44 |
| CCCOc1cc(Nc2ccc(C(=O)O)cn2)ccc1C(C)C [Compound 2c] | 50 |
| CCN(c1ccc(C(C)C)c(OC(C)C)c1)c1ncc(C(=O)O)cn1 [Compound 6a] | 3 |

biological target: T1, RXRα (Homo sapiens, UniProt P19793); assay: RXR reporter gene assay (luciferase) in COS-1 cells, RXRα; assay type: cell-based; details: COS-1
T1 construct: expressed in transfected cells; host or cells: COS-1 cells
T1 sequence (P19793 1-462): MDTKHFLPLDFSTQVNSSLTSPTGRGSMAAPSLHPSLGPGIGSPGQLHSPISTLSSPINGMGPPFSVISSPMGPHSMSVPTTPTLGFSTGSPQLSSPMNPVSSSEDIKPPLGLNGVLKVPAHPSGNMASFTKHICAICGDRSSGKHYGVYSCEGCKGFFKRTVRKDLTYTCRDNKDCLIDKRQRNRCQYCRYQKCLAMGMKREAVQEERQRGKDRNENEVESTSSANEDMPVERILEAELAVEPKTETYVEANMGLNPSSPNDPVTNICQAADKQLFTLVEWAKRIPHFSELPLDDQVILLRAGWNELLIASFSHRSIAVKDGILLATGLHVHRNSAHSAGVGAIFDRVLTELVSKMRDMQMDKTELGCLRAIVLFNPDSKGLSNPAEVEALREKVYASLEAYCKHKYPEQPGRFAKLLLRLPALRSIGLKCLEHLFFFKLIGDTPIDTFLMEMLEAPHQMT
Protocol: (§1) Most of nuclear receptors are transcription factors associated with regulating transcription, so that reporter gene assay is conducted as a means of measuring its transcription activity. An expression plasmid for RXR receptor protein and a reporter plasmid were introduced into cells such as COS-1 cells and HeLa cells to cause overexpression. And, when RXR agonist is bound to the receptor, transcription is induced in a ligand dependent manner, and a protein which is referred to as fusion protein downstream is produced. The binding of this fusion protein to the binding site on the reporter plasmid initiates the transcription to produce luciferase downstream. RXR agonistic activity was measured by measuring this luciferase activity.
(§2) Dulbecco's Modified Eagle MEM medium (DMEM) was used as growth medium.
(§3) Passage was conducted by removing culture supernatant from the cell culture grown in a 100 mm culture dish, collecting cells by trypsinization, centrifuging at 1000 rpm at 4° C. for 3 minutes, then dispersing cells by adding growth medium and growing them in a 100 mm culture dish (15 mL of growth medium) at 37° C. in the presence of 5% CO2.
(§4) Transformation was conducted using Effectene™ Transfection Reagent (QIAGEN). Further, Luciferase Assay System was used for evaluating luciferase activity. Am80 was used for the positive control of RAR, and 9-cis retinoic acid was used for the positive control of RXR. They were dissolved in DMSO for use as a stock solution and measured on every plate to be assayed.
(§5) • On day 1: COS-1 cells were seeded along with 15 mL of growth medium in a 60 mm culture dish at 50×10^4 cells and were cultured over night. • On day 2: Transformation was conducted by lipofection using Effectene™ Transfection Reagent. • On day 3: 16 to 18 hours later, the culture supernatant was removed, cells were collected by trypsinization, centrifugation was conducted at 1000 rpm at 4° C. for 3 minutes, then cells were dispersed by adding growth medium, and then the cells were seeded on a 96-well white plate at 2.0×10^4 cells/well. Then, each compound was added at DMSO concentration of 1% or below. • On day 4: 24 hours later, 25 μL of the supernatant was used for SEAP measurement, and the rest cell-containing solution was used for measuring luciferase activity.
(§6) In Table 5, a) EC50 indicated a concentration giving the half of the maximum transcriptional activation potential.

| Emax [%] | SMILES |
| --- | --- |
| 110 | CCN(c1ccc(C(C)C)c(OC(C)C)c1)c1ncc(C(=O)O)cn1 [Compound 6a] |

same assay, conditions: COS-1 cells; half of maximum transcriptional activation potential

| EC50 [nM] | SMILES |
| --- | --- |
| 2.9 | CCN(c1ccc(C(C)C)c(OCC(C)C)c1)c1ncc(C(=O)O)cn1 [Compound 7a] |
| > 660 | CCN(c1ccc(OC(C)C)c(C(C)C)c1)c1ccc(C(=O)O)cn1 [Compound 4a] |
| 6 | CCN(c1ccc(C(C)C)c(OC(C)C)c1)c1ncc(C(=O)O)cn1 [Compound 6a] |

same assay, conditions: COS-1 cells; relative to PA024 (1 μM) = 100%

| RXRα Emax (%) | SMILES |
| --- | --- |
| 110 | CCN(c1ccc(C(C)C)c(OCC(C)C)c1)c1ncc(C(=O)O)cn1 [Compound 7a] |
| >110 | CCN(c1ccc(OC(C)C)c(C(C)C)c1)c1ccc(C(=O)O)cn1 [Compound 4a] |

biological target: T2, RXRγ (Homo sapiens, UniProt P48443); assay: RXR reporter gene assay (luciferase) in COS-1 cells, RXRγ; assay type: cell-based; details: COS-1
T2 construct: expressed in transfected cells; host or cells: COS-1 cells
T2 sequence (P48443 1-463): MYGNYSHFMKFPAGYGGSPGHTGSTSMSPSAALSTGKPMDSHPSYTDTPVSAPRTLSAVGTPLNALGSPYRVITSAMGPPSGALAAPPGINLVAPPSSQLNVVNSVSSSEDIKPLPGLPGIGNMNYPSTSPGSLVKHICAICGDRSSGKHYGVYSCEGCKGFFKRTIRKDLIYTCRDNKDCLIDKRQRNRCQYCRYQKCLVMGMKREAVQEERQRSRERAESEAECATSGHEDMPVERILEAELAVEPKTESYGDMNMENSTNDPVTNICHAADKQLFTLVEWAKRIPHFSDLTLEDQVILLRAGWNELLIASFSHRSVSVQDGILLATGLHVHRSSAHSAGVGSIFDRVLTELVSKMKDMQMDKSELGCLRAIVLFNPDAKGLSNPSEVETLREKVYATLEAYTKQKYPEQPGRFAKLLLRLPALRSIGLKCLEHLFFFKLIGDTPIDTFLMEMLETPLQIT
Protocol: as §1, §2, §3, §4, §5, §6

| Emax [%] | SMILES |
| --- | --- |
| 105 | CCN(c1ccc(C(C)C)c(OC(C)C)c1)c1ncc(C(=O)O)cn1 [Compound 6a] |

same assay, conditions: COS-1 cells; half of maximum transcriptional activation potential

| EC50 [nM] | SMILES |
| --- | --- |
| 4.9 | CCN(c1ccc(C(C)C)c(OCC(C)C)c1)c1ncc(C(=O)O)cn1 [Compound 7a] |
| > 350 | CCN(c1ccc(OC(C)C)c(C(C)C)c1)c1ccc(C(=O)O)cn1 [Compound 4a] |
| > 58 | CCN(c1ccc(C(C)C)c(OC(C)C)c1)c1ncc(C(=O)O)cn1 [Compound 6a] |

same assay, conditions: COS-1 cells; relative to PA024 (1 μM) = 100%

| RXRγ Emax (%) | SMILES |
| --- | --- |
| 105 | CCN(c1ccc(C(C)C)c(OCC(C)C)c1)c1ncc(C(=O)O)cn1 [Compound 7a] |
| >81 | CCN(c1ccc(OC(C)C)c(C(C)C)c1)c1ccc(C(=O)O)cn1 [Compound 4a] |

biological target: T3, RXRβ (Homo sapiens, UniProt P28702); assay: RXR reporter gene assay (luciferase) in COS-1 cells, RXRβ; assay type: cell-based; details: COS-1
T3 construct: expressed in transfected cells; host or cells: COS-1 cells
T3 sequence (P28702 1-533): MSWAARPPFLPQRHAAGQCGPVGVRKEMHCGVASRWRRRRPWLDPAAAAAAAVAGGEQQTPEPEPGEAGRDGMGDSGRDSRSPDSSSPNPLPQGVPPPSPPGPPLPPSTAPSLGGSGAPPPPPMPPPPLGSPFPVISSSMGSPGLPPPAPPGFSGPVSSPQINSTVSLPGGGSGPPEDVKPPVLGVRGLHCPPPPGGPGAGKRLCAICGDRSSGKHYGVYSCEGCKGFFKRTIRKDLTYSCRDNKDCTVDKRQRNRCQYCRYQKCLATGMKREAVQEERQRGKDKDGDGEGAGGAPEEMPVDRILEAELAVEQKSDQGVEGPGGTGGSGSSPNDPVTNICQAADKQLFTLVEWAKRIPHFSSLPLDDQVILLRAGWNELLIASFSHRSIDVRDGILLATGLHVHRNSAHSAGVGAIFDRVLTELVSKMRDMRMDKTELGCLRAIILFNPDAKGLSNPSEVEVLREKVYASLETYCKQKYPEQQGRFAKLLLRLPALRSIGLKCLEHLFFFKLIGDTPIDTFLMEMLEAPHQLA
Protocol: as §1, §2, §3, §4, §5, §6

| Emax [%] | SMILES |
| --- | --- |
| 100 | CCN(c1ccc(C(C)C)c(OC(C)C)c1)c1ncc(C(=O)O)cn1 [Compound 6a] |

same assay, conditions: COS-1 cells; half of maximum transcriptional activation potential

| EC50 [nM] | SMILES |
| --- | --- |
| 7.3 | CCN(c1ccc(C(C)C)c(OCC(C)C)c1)c1ncc(C(=O)O)cn1 [Compound 7a] |
| > 1300 | CCN(c1ccc(OC(C)C)c(C(C)C)c1)c1ccc(C(=O)O)cn1 [Compound 4a] |
| 18 | CCN(c1ccc(C(C)C)c(OC(C)C)c1)c1ncc(C(=O)O)cn1 [Compound 6a] |

same assay, conditions: COS-1 cells; relative to PA024 (1 μM) = 100%

| RXRβ Emax (%) | SMILES |
| --- | --- |
| 140 | CCN(c1ccc(C(C)C)c(OCC(C)C)c1)c1ncc(C(=O)O)cn1 [Compound 7a] |
| >80 | CCN(c1ccc(OC(C)C)c(C(C)C)c1)c1ccc(C(=O)O)cn1 [Compound 4a] |

system: Histone Deacetylase (HDAC); assay: HDAC Activity/Inhibitor Screening Assay Kit (Cayman); assay type: biochemical; details: at 100 μM
Protocol: Activity Evaluation Method 3: Histone Deacetylase (HDAC) Inhibitory Activity
HDAC inhibitory activity was evaluated for compounds represented by formulae XVII and XVIII, through the use of HDAC Activity/Inhibitor Screening Assay Kit supplied by Cayman and according to that protocol.

| HDAC activity inhibition rate [%] | SMILES |
| --- | --- |
| 78 | CCN(c1ccc(C(C)C)c(OC(C)C)c1)c1ccc(/C=C/C(=O)O)cn1 [XVII] |
